Results published in patent US20060135785A1, “Alpha-phenyl acetanilide derivatives having an acat inhibiting activity and the therapeutic application thereof” (Pierre Fabre Medicament, priority 2002, published 2006).
Read-outs that look alike come from different tables or passages of the source.

Assays:
plasma cholesterol = assay: Blood cholesterol-lowering activity in rats on hypercholesterolemic diet; type: in vivo, rat; settings: male rats, Altromin C 1061 hypercholesterolemic diet 4 days, dose that reduces the plasma cholesterol concentration by half compared with control animals
Procedure: Male rats (160-180 g) were subjected, for 4 days, to an Altromin C 1061 hypercholesterolemic diet and treated in parallel orally with the compounds in suspension in a solution of 2% Tween 80 in distilled water.
On the 5th day, the animals not fasting are anaesthetized with ethyl ether, and bled out on EDTA via the abdominal aorta. The blood is immediately centrifuged and the plasma is stored at 4° C.
The plasma cholesterol is then assayed by the CHOD-PAP method (Boehringer Mannheim Ref. 237574). The 50% effective dose (ED50) corresponds to the dose that reduces the plasma cholesterol concentration by half compared with control animals.

[1] = Rattus norvegicus, po, 96 h, read-out: ED50

SMILES	melting point [°C]	ED50 (plasma cholesterol; oral) [mg/kg]	ED50 (plasma cholesterol; [1]) [mg/kg]
CCCCCCCCCCCCn1nnc(C(F)(C(=O)Nc2c(C)c(C)c(N)c(C)c2C)c2ccccc2)n1.Cl (stereo not shown)	168		
CCCCCCCCCCCCn1nnc(C(C(=O)Nc2cc(C)c(O)c(C)c2C)c2ccccc2)n1 (single isomer, unassigned; (+)) [Compound 5, (+)-2′,3′,5′-Trimethyl-4′-hydroxy-α-(2-dodecyl-2H-5-tetrazolyl)-α-phenylacetanilide]		0.025	
CCCCCCCCCCCCn1nnc(C(F)(C(=O)Nc2cc(C)c(O)c(C)c2C)c2ccccc2)n1 (single isomer, unassigned; (+)) [Compound 9, (+)-21,3′,5′-Trimethyl-4′-hydroxy-α-(2-dodecyl-2H-5-tetrazolyl)-α-fluoro-α-phenylacetanilide]			0.012
CCCCCCCCCCCCS(=O)(=O)[C@H](C(=O)Nc1cc(C)c(O)c(C)c1C)c1ccccc1 [Compound 1, (S)-2′,3′,5′-Trimethyl-4′-hydroxy-α-dodecylsulfonyl-α-phenylacetanilide]			0.25
CCCCCCCCCCCCS(=O)(=O)C(F)(C(=O)Nc1cc(C)c(O)c(C)c1C)c1ccccc1 (stereo not drawn) [Compound 3, 2′,3′,5′-Trimethyl-4′-hydroxy-α-dodecylsulfonyl-α-fluoro-α-phenylacetanilide]			0.022
CCCCCCCCCCCCn1nnc(C(C(=O)Nc2cc(C)c(O)c(C)c2C)c2ccccc2)n1 (stereo not drawn) [Compound 4, 2′,3′,5′-Trimethyl-4′-hydroxy-α-(2-dodecyl-2H-5-tetrazolyl)-α-phenylacetanilide]	105		0.029
Cc1cc(NC(=O)C(F)(c2ccccc2)c2nnn(CCCCCCCCCCCC(F)F)n2)c(C)c(C)c1O (stereo not drawn) [Compound 10, 2′,3′,5′-Trimethyl-4′-hydroxy-α-[2-(12,12-difluoro-dodecyl)-2H-5-tetrazolyl]-α-fluoro-α-phenylacetanilide]	96		0.029
CCCCCCCCCCCCS[C@H](C(=O)Nc1cc(C)c(O)c(C)c1C)c1ccccc1 [Eflucimibe, reference compound]			0.12
